Experimental data as given in ChEMBL document CHEMBL5346941, “Design, synthesis and evaluation of novel monoamine oxidase B (MAO-B) inhibitors with improved pharmacokinetic properties for Parkinson's disease” (Eur J Med Chem, 2023).
Active and inactive are the calls of the source. The rule behind the calls is not given here.

How the values were obtained:
[1] = biological target: CYP2D6 (Homo sapiens, UniProt P10635); experiment: Inhibition of CYP2D6 in human liver microsomes using propranolol as substrate at 10 uM incubated for 10 mins in presence of NADPH by LC-MS/MS analysis relative to control; type: ADME, Microsome; conditions: probe propranolol
Chain of CYP2D6 (P10635 whole entry): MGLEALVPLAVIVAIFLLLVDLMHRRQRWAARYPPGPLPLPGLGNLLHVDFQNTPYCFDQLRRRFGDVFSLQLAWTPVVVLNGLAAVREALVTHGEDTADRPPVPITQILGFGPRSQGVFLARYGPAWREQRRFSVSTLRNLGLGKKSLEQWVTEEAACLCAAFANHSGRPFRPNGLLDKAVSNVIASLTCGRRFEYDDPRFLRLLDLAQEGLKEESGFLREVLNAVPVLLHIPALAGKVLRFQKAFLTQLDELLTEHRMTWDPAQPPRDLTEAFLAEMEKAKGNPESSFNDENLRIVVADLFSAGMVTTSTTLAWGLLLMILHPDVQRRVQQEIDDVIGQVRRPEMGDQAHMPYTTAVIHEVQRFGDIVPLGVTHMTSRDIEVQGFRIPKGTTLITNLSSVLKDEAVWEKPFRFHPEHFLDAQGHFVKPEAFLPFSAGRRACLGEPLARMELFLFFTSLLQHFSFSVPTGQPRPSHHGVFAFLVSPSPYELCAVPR

[2] = Clearance in fasted ICR mouse at 2 mg/kg, iv measured for 24 hrs; type: ADME, organism-based; conditions: in vivo
[3] = biological target: T1, CYP1A2 (Homo sapiens, UniProt P05177); experiment: Inhibition of CYP1A2 in human liver microsomes using ethoxyresorufin as substrate at 10 uM incubated for 10 mins in presence of NADPH by LC-MS/MS analysis relative to control; type: ADME, Microsome; conditions: probe ethoxyresorufin
T1 sequence (P05177 whole entry): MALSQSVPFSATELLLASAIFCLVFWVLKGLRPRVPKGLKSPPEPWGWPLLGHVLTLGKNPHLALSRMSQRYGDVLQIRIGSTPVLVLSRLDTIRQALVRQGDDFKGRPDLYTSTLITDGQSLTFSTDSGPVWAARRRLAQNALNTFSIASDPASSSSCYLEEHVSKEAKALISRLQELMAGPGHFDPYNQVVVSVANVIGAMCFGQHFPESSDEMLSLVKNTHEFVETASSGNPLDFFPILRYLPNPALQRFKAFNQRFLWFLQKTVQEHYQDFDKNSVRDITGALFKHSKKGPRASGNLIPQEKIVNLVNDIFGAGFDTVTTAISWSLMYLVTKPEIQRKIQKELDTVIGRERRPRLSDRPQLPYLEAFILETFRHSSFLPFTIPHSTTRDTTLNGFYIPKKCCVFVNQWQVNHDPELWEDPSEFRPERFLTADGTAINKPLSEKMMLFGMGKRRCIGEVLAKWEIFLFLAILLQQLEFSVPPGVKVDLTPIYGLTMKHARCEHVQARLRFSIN

[4] = Elimination half life in fasted ICR mouse at 2 mg/kg, iv measured for 24 hrs; type: ADME, organism-based; conditions: in vivo, read-out: beta t1/2 (converted)
[5] = biological target: CYP2C9 (Homo sapiens, UniProt P11712); experiment: Inhibition of CYP2C9 in human liver microsomes using diclofenac as substrate at 10 uM incubated for 10 mins in presence of NADPH by LC-MS/MS analysis relative to control; type: ADME, Microsome; conditions: probe diclofenac
Chain of CYP2C9 (P11712 whole entry): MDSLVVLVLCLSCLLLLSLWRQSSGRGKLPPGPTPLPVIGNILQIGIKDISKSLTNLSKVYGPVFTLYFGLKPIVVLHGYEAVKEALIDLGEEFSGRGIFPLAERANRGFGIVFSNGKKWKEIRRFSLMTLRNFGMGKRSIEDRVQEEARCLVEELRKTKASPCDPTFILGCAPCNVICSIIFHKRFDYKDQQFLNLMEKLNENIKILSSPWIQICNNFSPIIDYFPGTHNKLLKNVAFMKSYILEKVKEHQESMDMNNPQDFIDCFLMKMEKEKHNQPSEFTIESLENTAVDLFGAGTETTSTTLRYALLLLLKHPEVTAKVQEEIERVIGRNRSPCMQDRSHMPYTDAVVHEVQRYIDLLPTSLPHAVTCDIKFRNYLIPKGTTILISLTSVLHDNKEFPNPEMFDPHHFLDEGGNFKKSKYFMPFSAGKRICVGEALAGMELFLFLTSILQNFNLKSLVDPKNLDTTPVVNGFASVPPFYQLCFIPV

[6] = Volume of distribution at steady state in fasted Sprague-Dawley rat at 1 mg/kg, iv measured for 24 hrs; type: ADME, organism-based; conditions: in vivo, read-out: Vdss
[7] = Drug concentration in Sprague-Dawley rat plasma at 5 mg/kg, ip measured after 60 mins by LC-MS/MS analysis; type: ADME, organism-based
[8] = Metabolic stability in human liver microsomes assessed as intrinsic clearance at 1 uM incubated for 60 mins in presence of NADPH by LC-MS/MS analysis; type: ADME, Microsome; conditions: read-out: CLH
[9] = AUC (0 to t) in fasted ICR mouse at 5 mg/kg, IG measured for 24 hrs; type: ADME, organism-based; set-up: dose 5 mg/kg, time 24 hrs, route ig; conditions: in vivo, po
[10] = Ratio of drug concentration in Sprague-Dawley brain to plasma at 5 mg/kg, ip measured after 15 mins by LC-MS/MS analysis; type: ADME, organism-based; conditions: rat, read-out: BPR
[11] = Drug concentration in Sprague-Dawley rat brain at 5 mg/kg, ip measured after 60 mins by LC-MS/MS analysis; type: ADME, organism-based; conditions: read-out: Ct
[12] = Clearance in fasted Sprague-Dawley rat at 1 mg/kg, iv measured for 24 hrs; type: ADME, organism-based; conditions: in vivo
[13] = Apparent permeability across basolateral to apical side in MDCKII-MDR1 cells at 10 uM incubated for 30 mins by LC-MS/MS analysis; type: ADME, cell-based, Canis lupus familiaris; conditions: dog, MDCK-MDR1
[14] = tested on: Mus musculus; experiment: Anti-parkinson activity in MPTP-induced dopamine deficit C57BL/6 mouse model assessed as increase in dopamine concentration in striatum at 3 to 10 mg/kg, ip pretreated with MPTP for 4 hrs followed by compound administration for 5 times once every 4 hrs further incubated with L-dopa at 50 mg/kg for 30 mins prior to last dose and measured after 30 mins by HPLC analysis; type: functional, organism-based; conditions: dose 3-10 mg/kg, time 16.5 hrs
[15] = Elimination half life in fasted Sprague-Dawley rat at 5 mg/kg, IG measured for 24 hrs; type: ADME, organism-based; conditions: in vivo, po, read-out: beta t1/2 (converted)
[16] = AUC (0 to t) in fasted Sprague-Dawley rat at 5 mg/kg, IG measured for 24 hrs; type: ADME, organism-based; set-up: dose 5 mg/kg, time 24 hrs, route ig; conditions: in vivo, po
[17] = Cmax in fasted ICR mouse at 5 mg/kg, IG measured for 24 hrs; type: ADME, organism-based; set-up: dose 5 mg/kg, time 24 hrs, route ig; conditions: in vivo, po
[18] = Cmax in fasted ICR mouse at 2 mg/kg, iv measured for 24 hrs; type: ADME, organism-based; set-up: time 24 hrs, dose 2 mg/kg, route iv; conditions: in vivo
[19] = Cmax in fasted Sprague-Dawley rat at 1 mg/kg, iv measured for 24 hrs; type: ADME, organism-based; set-up: dose 1 mg/kg, time 24 hrs, route iv; conditions: Sprague-Dawley, in vivo, read-out: Cmax
[20] = Metabolic stability in mouse liver microsomes assessed as intrinsic clearance at 1 uM incubated for 60 mins in presence of NADPH by LC-MS/MS analysis; type: ADME, Microsome; conditions: read-out: CLH
[21] = AUC (0 to t) in fasted ICR mouse at 2 mg/kg, iv measured for 24 hrs; type: ADME, organism-based; set-up: dose 2 mg/kg, time 24 hrs, route iv; conditions: in vivo
[22] = Drug concentration in Sprague-Dawley rat plasma at 5 mg/kg, ip measured after 15 mins by LC-MS/MS analysis; type: ADME, organism-based
[23] = Elimination half life in fasted Sprague-Dawley rat at 1 mg/kg, iv measured for 24 hrs; type: ADME, organism-based; conditions: in vivo, read-out: beta t1/2 (converted)
[24] = Drug concentration in Sprague-Dawley rat brain at 5 mg/kg, ip measured after 15 mins by LC-MS/MS analysis; type: ADME, organism-based; conditions: read-out: Ct
[25] = Protein binding in dog plasma at 1 uM incubated for 5 hrs by LC-MS/MS based rapid equilibrium dialysis method; type: ADME, cell-free, Canis lupus familiaris; conditions: read-out: PPB (converted)
[26] = Ratio of drug concentration in Sprague-Dawley brain to plasma at 5 mg/kg, ip measured after 120 mins by LC-MS/MS analysis; type: ADME, organism-based; conditions: rat, read-out: BPR
[27] = Metabolic stability in rat liver microsomes assessed as half life at 1 uM incubated for 60 mins in presence of NADPH by LC-MS/MS analysis; type: ADME, Microsome
[28] = Bioavailability in fasted Sprague-Dawley rat at 5 mg/kg, IG measured for 24 hrs; type: ADME, organism-based; conditions: in vivo, po
[29] = Drug concentration in Sprague-Dawley rat brain at 5 mg/kg, ip measured after 120 mins by LC-MS/MS analysis; type: ADME, organism-based; conditions: read-out: Ct
[30] = In vivo inhibition of MAO-B in ICR mouse assessed as reduction in enzyme activity in brain by measuring fold change at 1.28 mg/kg, ip administered once for 30 to 60 mins by amplex red based assay relative to safinamide; type: functional; conditions: time 30-60 min
[31] = biological target: CYP3A4 (Homo sapiens, UniProt P08684); experiment: Inhibition of CYP3A4 in human liver microsomes using midazolam as substrate at 10 uM incubated for 5 mins in presence of NADPH by LC-MS/MS analysis relative to control; type: ADME, Microsome; conditions: probe midazolam
Chain of CYP3A4 (P08684 whole entry): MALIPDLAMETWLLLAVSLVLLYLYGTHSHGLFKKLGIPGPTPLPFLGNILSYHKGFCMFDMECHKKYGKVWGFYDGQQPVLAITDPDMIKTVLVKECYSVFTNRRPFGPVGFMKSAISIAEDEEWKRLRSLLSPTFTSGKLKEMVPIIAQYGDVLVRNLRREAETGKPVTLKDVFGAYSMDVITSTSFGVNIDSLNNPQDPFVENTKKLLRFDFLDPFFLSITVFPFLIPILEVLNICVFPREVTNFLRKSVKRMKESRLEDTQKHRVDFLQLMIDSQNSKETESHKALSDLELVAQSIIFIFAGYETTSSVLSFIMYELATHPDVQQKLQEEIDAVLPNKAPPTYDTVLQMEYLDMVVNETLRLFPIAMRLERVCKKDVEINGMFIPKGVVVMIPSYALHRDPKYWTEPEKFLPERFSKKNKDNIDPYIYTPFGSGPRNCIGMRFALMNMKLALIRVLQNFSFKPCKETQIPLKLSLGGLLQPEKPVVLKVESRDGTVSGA

[32] = biological target: Voltage-gated inwardly rectifying potassium channel KCNH2 (Homo sapiens, UniProt Q12809); experiment: Inhibition of hERG transfected in CHO-K1 cells at -80 mV holding potential incubated for 2 mins by patch clamp assay; type: toxicity, cell-based
Chain of Voltage-gated inwardly rectifying potassium channel KCNH2 (Q12809 whole entry): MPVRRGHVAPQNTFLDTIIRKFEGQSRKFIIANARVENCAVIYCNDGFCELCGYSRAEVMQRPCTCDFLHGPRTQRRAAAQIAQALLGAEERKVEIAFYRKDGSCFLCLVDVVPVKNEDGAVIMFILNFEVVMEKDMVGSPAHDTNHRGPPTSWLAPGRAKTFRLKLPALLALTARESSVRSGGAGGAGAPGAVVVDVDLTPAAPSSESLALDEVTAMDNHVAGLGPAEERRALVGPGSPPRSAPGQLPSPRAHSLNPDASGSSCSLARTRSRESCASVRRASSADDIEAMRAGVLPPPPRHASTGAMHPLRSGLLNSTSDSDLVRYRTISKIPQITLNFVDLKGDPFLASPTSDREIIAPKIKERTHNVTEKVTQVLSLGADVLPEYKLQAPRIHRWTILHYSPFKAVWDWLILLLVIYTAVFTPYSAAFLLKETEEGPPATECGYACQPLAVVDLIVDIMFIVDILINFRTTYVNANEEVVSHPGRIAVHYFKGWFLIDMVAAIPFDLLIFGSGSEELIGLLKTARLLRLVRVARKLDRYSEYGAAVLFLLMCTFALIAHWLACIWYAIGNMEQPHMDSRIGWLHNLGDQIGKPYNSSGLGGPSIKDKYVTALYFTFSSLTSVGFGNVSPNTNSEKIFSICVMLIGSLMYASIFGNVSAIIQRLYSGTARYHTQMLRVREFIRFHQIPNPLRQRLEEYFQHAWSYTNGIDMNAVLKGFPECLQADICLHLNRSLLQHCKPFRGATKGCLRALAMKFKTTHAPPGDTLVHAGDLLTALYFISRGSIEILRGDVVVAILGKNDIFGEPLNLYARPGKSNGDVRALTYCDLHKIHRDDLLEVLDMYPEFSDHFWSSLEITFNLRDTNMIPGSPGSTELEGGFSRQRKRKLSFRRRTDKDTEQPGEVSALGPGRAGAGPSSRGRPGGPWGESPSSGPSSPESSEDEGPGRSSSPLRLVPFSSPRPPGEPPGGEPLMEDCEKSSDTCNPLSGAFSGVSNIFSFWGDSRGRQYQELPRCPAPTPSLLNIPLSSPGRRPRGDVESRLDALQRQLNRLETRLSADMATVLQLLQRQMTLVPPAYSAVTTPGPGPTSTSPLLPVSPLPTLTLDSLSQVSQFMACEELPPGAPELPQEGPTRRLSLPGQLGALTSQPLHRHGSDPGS

[33] = Drug concentration in Sprague-Dawley rat plasma at 5 mg/kg, ip measured after 120 mins by LC-MS/MS analysis; type: ADME, organism-based
[34] = Protein binding in human plasma at 1 uM incubated for 5 hrs by LC-MS/MS based rapid equilibrium dialysis method; type: ADME, cell-free; conditions: read-out: PPB (converted)

inhibition at 10 min, 10 µM [1]: -3.37%
clearance [2]: 11 mL/min/kg
inhibition at 10 min, 10 µM [3]: 32.6%
half-life [4]: 3.37 h
inhibition at 10 min, 10 µM [5]: 8.05%
Vd [6]: 3.33 L/kg
concentration at 1 h [7]: 540 ng/mL
CLint scaled at 1 µM [8]: 2.5 mL/min/kg
AUC(0-t) at 24 h [9]: 7950 ng·h/mL
Kp at 0.25 h [10]: 10.4
concentration at 1 h [11]: 8750 ng/g
clearance [12]: 54.2 mL/min/kg
Papp B→A at 0.5 h, 10 µM [13]: 2.97 ×10⁻⁶ cm/s
half-life [15]: 4.22 h
AUC(0-t) at 24 h [16]: 2280 ng·h/mL
Cmax [17]: 913 ng/mL
Cmax [18]: 900 ng/mL
Cmax [19]: 273 ng/mL
CLint scaled at 1 µM [20]: 6.9 mL/min/kg
AUC(0-t) at 24 h [21]: 2680 ng·h/mL
concentration at 0.25 h [22]: 536 ng/mL
half-life [23]: 0.74 h
concentration at 0.25 h [24]: 5560 ng/g
fraction unbound at 5 h, 1 µM [25]: 0.0036
Kp at 2 h [26]: 15.5
half-life at 1 µM [27]: 1.48 h
bioavailability [28]: 150%
concentration at 2 h [29]: 7090 ng/g
inhibition at 5 min, 10 µM [31]: -45.2%
concentration at 2 h [33]: 458 ng/mL
fraction unbound at 5 h, 1 µM [34]: 0.0058
SMILES: NC(=O)[C@@H]1C[C@H](F)CN1Cc1ccc2oc(-c3ccc(F)cc3)cc2c1
Activity [14]: Active
fold change (FC) [30]: 5
IC50 [32]: > 30 µM
